Experimental data as given in patent US20030092037A1, “Elk1 phosphorylation related gene” (priority 2001, published 2003).

System: MAP kinase cascade activating protein according to SEQ ID NO: 4, 6, 12, 16, 18, 22, 26, 28, 30, 44, 50, 52, 60, 68, 72, 104, 110, 112, 116, 122, 132, 142, 146 …
Assay: Screening for inhibitors in 293-EBNA reporter systems expressing MAP kinase cascade activating proteins
Format: cell-based, human
Conditions: compound 10 μM; 50 ng expression plasmid; 24 hours; all 27 SEQ ID NO systems
Description: (in the presence of 5% CO2). Then, using FuGENE6 (Roche), 50 ng of each of the expression plasmids obtained in Example 2 above which comprise a gene encoding the MAP kinase cascade activating protein according to SEQ ID NO: 4, 6, 12, 16, 18, 22, 26, 28, 30, 44, 50, 52, 60, 68, 72, 104, 110, 112, 116, 122, 132, 142, 146, 148, 150, 152 or 154 were respectively co-transfected in a well with 60 ng of pFR-Luc ([…]), 0.25 ng of pFA2-Elk1 ([…]), 5 ng of pcDNA 3.1 (+) (INVITROGEN) into which human p38 gene had been incorporated and 30 ng of pcDNA 3.1 (+) (INVITROGEN) into which human JNJ1 β 1 gene had been incorporated. The method used for introduction was in accordance with the attached protocol. After culturing for 2 hours at 37° C., any one of 1000 types of compound that were held in stock, was added to a final concentration of 10 μM per well, and after further culturing for 24 hours at 37° C., reporter activity, which reflects MAP kinase cascade activition, was measured by Picagene LT2 (purchased from Toyo Ink Manufacturing) in accordance with the manufacturer's instructions. Using a well to which no compound was added as a control, compounds were screened to identify a compound which reduced reporter activity in the well to which it was added to 50% or lower. […]

Q: CN[C@@H]1C[C@H]2O[C@@](C)([C@@H]1OC)n1c3ccccc3c3c4c(c5c6ccccc6n2c5c31)C(=O)NC4 [staurosporine] was tested. Which “reporter activity relative to control well to which no compound was added” value did it give?
A: Its value is ≤ 50%.
